One experiment has as its system MeCP2 and Sox2. The experiment in a line: Co-immunoprecipitation between MeCP2 and Sox2 in NSCs. It counts as cell-based, rat. As to conditions: in the presence of 5-Aza. The procedure:
Immunofluorescence for EGFP was performed as previously described (11). A non-transgenic animal was used to measure the background fluorescence in the brain and to establish a threshold for detection. Western blotting was carried out using standard protocols with the following antibodies: mouse anti-Actin (1/500, Ambion), rabbit anti-MeCP2 (1/1000, Imgenex or Upstate), and rabbit anti-Sox2 (1/100, Chemicon). All secondary antibodies were purchased from Jackson ImmunoResearch. For co-immunoprecipitation, the Nuclear Complex Co-IP kit (Active Motif) was used, following the manufacturer's protocol with the highest stringency buffers.

In experiment [1] the test system is L1 promoter region (5′UTR). The experiment can be described thus: Chromatin immunoprecipitation (ChIP) on the endogenous rat L1 promoter region in NSCs. It counts as cell-based. As to conditions: 500 ng/ml, 4 days. From the text: ChIP assay was done essentially following the manufacturer's protocol using a ChIP assay kit (Upstate). Antibodies used were anti-MeCP2 (Upstate), Sox2 (Chemicon), and IgG. Purified DNA was amplified by PCR using primers for the rat L1 5′UTR promoter region (L1.3, accession # X03095).

The next experiment relates to L1 5′UTR CpG islands. The experiment in a line: Bisulfite analysis of L1 5′UTR DNA methylation in NSCs. In kind it is cell-based, rat. The following applies: treatment for 4-days. How it is done: Genomic DNA from NSCs was isolated using standard phenol-chloroform extraction techniques. Subsequently, DNA was digested with the restriction enzyme EcoRI and the bisulfite conversion reaction was performed using the Epitect kit (Quiagen), following manufacturer's instructions. Primers were designed based on the rat L1 sequence Mlvi2, using Methyl Primer Express; […]. PCR products were cloned into TOPO TA 2.1 plasmids (Invitrogen) and 40 bacterial colonies were analyzed by sequencing.

The subject of another experiment is L1 5′UTR promoter. The experiment in a line: L1 5′UTR-Luc luciferase reporter assay in MeCP2 KO neuroepithelial cells. It counts as cell-based, mouse. As to conditions: Sox2 overexpression in MeCP2 KO neuroepithelial cells. How it is done:
Rat NSCs were isolated, characterized and cultured as described (31,32). For neuronal differentiation, cells were cultured in N2 medium (Invitrogen) containing retinoic acid (RA, 1 μM, Sigma) and forskolin (5 μM, Sigma) for 4 days (11). Freshly isolated neuroepithelial cells from time-pregnant midgestation (E11.5) telencephalons from WT and MeCP2 KO sibling mouse embryos from the same background (C57BL/6J) were briefly cultured for 2-3 passages in FGF-2 as described elsewhere (19). Primary skin fibroblasts were isolated from tail biopsy and cultured in DMEM (Invitrogen) with 10% FBS (Invitrogen). Samples of all isolated cells were used for genotyping using previously described primers (33). Plasmid transfections were done by electroporation following the manufacturer's instructions (Amaxa Biosystem).
The L1 5′UTR-Luc plasmid was methylated by […] according to the manufacturer's protocol. Complete methylation was checked by digestion with Hpa II restriction enzyme. Luciferase activity was measured with the Dual-Luciferase reporter assay system (Promega) according to the manufacturer's protocol. Luciferase activity was usually measured 48 h after transfection. A plasmid containing the Renilla luciferase gene was used as an internal control. All the experiments were done at least 3 times independently and transfection efficiency was about 30% for all samples. […]

With `Nc1ncn([C@@H]2O[C@H](CO)[C@@H](O)[C@H]2O)c(=O)n1` [5-Azacytidine], the “amount of MeCP2 in association with Sox2 in solution (Co-IP)” value in the experiment on MeCP2 and Sox2 was “increased the amount of MeCP2 in association with Sox2 in solution”. Moreover, in experiment [1], the “MeCP2 ChIP signal / association to the L1 promoter region” value is “the MeCP2 ChIP signal was lost” and the “Sox2 binding / association to the L1 promoter region (ChIP)” value is on record as “did not prevent Sox2 binding to the L1 promoter”. In experiment [1] (listed as 5-Azacitidine), the “MeCP2 ChIP signal / association to the L1 promoter region” value is “reduced MeCP2” and the “Sox2 binding / association to the L1 promoter region (ChIP)” value is given as “not Sox2 association”. Besides, in the experiment on L1 5′UTR CpG islands, the “methylation of the 5′UTR L1 region (5 CpG sites, bisulfite)” value was “completely removed methyl radicals”.
“Sox2: transcriptional factor Sox2, overexpressed in MeCP2 KO neuroepithelial cells”: the “reduction of luciferase expression (L1 promoter activity)” value with L1 5′UTR promoter is “approximately 50%”.

The record behind these values is patent US20130315886A1, “RETROELEMENTS AND MENTAL DISORDERS AND METHODS OF MEASURING L1 RETROTRANSPOSITION” (Salk Institute for Biological Studies, priority 2009, published 2013).
